Laboratory results reported in patent publication US10294202B2, “Pyrrolidinones as herbicides” (FMC Corporation, priority 2013, dated 2019).

How the values were obtained:
sedge, umbrella = assay: Test B flooded paddy test; assay type: in vivo, Cyperus difformis; conditions: Flood, scale of 0 to 100 where 0 is no effect and 100 is complete control
Method in brief: (§1)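 Treatment was made at the 2-leaf stage by dosing the standing floodwater, kept 3 cm above soil level for the whole test. Greenhouse exposure lasted 13 to 15 days. Response is a visual percent rating relative to controls, where a dash indicates no test result.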

ducksalad = assay: Test B flooded paddy test; assay type: in vivo, Heteranthera limosa; conditions: Flood, scale of 0 to 100 where 0 is no effect and 100 is complete control
Method in brief: as §1

barnyardgrass [1] = assay: Test B flooded paddy test; assay type: in vivo, Echinochloa crus-galli; conditions: Flood, scale of 0 to 100 where 0 is no effect and 100 is complete control
Method in brief: as §1

ryegrass, Italian = assay: Test C pre-/postemergence herbicide test; assay type: in vivo, Lolium multiflorum; conditions: Preemergence; for Plant response rating, Ryegrass, Italian: 125 g ai/ha; for Plant response rating (scale of 0 to 100), Ryegrass, Italian: 250 g ai/ha
Method in brief: (§2)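 Plants grown and held in a greenhouse for 13 to 15 days post-spray, then rated 0–100 by visual comparison with controls. Pre treatments targeted seeds in loam and sand; post treatments targeted 1- to 4-leaf plants in peat-based potting medium.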

wheat (winter wheat) = assay: Test C pre-/postemergence herbicide test; assay type: in vivo, Triticum aestivum; conditions: Preemergence; for Plant response rating (scale of 0 to 100), Wheat: 250 g ai/ha; for Plant response rating, Wheat: 125 g ai/ha
Method in brief: as §2

galium = assay: Test C pre-/postemergence herbicide test; assay type: in vivo, Galium aparine; conditions: Preemergence; for Plant response rating, Galium: 125 g ai/ha; for Plant response rating (scale of 0 to 100), Galium: 250 g ai/ha
Method in brief: as §2

corn = assay: Test C pre-/postemergence herbicide test; assay type: in vivo, Zea mays; conditions: Preemergence; for Plant response rating, Corn: 125 g ai/ha; for Plant response rating (scale of 0 to 100), Corn: 250 g ai/ha
Method in brief: as §2

lambsquarters = assay: Test C pre-/postemergence herbicide test; assay type: in vivo, Chenopodium album; conditions: Preemergence; for Plant response rating, Lambsquarters: 125 g ai/ha; for Plant response rating (scale of 0 to 100), Lambsquarters: 250 g ai/ha
Method in brief: as §2

morningglory = assay: Test C pre-/postemergence herbicide test; assay type: in vivo, Ipomoea coccinea; conditions: Preemergence; for Plant response rating, Morningglory: 125 g ai/ha; for Plant response rating (scale of 0 to 100), Morningglory: 250 g ai/ha
Method in brief: as §2

pigweed = assay: Test C pre-/postemergence herbicide test; assay type: in vivo, Amaranthus retroflexus; conditions: Preemergence; for Plant response rating, Pigweed: 125 g ai/ha; for Plant response rating (scale of 0 to 100), Pigweed: 250 g ai/ha
Method in brief: as §2

ragweed = assay: Test C pre-/postemergence herbicide test; assay type: in vivo, Ambrosia elatior; conditions: Preemergence; for Plant response rating, Ragweed: 125 g ai/ha; for Plant response rating (scale of 0 to 100), Ragweed: 250 g ai/ha
Method in brief: as §2

soybean = assay: Test C pre-/postemergence herbicide test; assay type: in vivo, Glycine max; conditions: Preemergence; for Plant response rating, Soybean: 125 g ai/ha; for Plant response rating (scale of 0 to 100), Soybean: 250 g ai/ha
Method in brief: as §2

barnyardgrass [2] = assay: Test C pre-/postemergence herbicide test; assay type: in vivo, Echinochloa crus-galli; conditions: Preemergence; for Plant response rating (scale of 0 to 100; 0 is no effect, 100 is complete control), Barnyardgrass: 250 g ai/ha
Method in brief: as §2

waterhemp = assay: Test C pre-/postemergence herbicide test; assay type: in vivo, Amaranthus rudis; conditions: Preemergence; for Plant response rating, Waterhemp: 125 g ai/ha; for Plant response rating (scale of 0 to 100), Waterhemp: 250 g ai/ha
Method in brief: as §2

[3] = 31 g ai/ha, scale 0 to 100, 0 is no effect and 100 is complete control
[4] = 62 g ai/ha, scale 0 to 100 (0 no effect, 100 complete control)
[5] = scale 0 to 100 (0 no effect, 100 complete control)
[6] = 125 g ai/ha, scale 0 to 100 (0 no effect, 100 complete control)

O=C1NCC(c2ccc(C(F)(F)F)nc2)C1C(=O)Nc1cccc(F)c1F (racemic) [Compound 263]
Plant response rating, Sedge, Umbrella (sedge, umbrella; 1000 g ai/ha): 0
Plant response rating, Ducksalad (ducksalad; 1000 g ai/ha): 90
Plant response rating, Barnyardgrass (barnyardgrass [1]; 1000 g ai/ha): 0
Ryegrass, Italian plant response rating (ryegrass, Italian; [3]): 0
Ryegrass, Italian plant response rating (ryegrass, Italian; [4]): 0
Plant response rating, Ryegrass, Italian (ryegrass, Italian; [5]): 0
Plant response rating (scale of 0 to 100), Ryegrass, Italian (ryegrass, Italian): 35
Wheat plant response rating (wheat (winter wheat); [3]): 0
Wheat plant response rating (wheat (winter wheat); [4]): 10
Plant response rating (scale of 0 to 100), Wheat (wheat (winter wheat)): 50
Galium plant response rating (galium; [3]): 70
Galium plant response rating (galium; [4]): 85
Plant response rating, Galium (galium; [5]): 85
Plant response rating (scale of 0 to 100), Galium (galium): 90
Corn plant response rating (corn; [3]): 0
Corn plant response rating (corn; [4]): 0
Plant response rating, Corn (corn; [5]): 0
Plant response rating (scale of 0 to 100), Corn (corn): 10
Lambsquarters plant response rating (lambsquarters; [3]): 50
Lambsquarters plant response rating (lambsquarters; [4]): 100
Plant response rating, Lambsquarters (lambsquarters; [5]): 70
Plant response rating (scale of 0 to 100), Lambsquarters (lambsquarters): 80
Morningglory plant response rating (morningglory; [3]): 0
Morningglory plant response rating (morningglory; [4]): 0
Plant response rating, Morningglory (morningglory; [5]): 20
Plant response rating (scale of 0 to 100), Morningglory (morningglory): 10
Pigweed plant response rating (pigweed; [3]): 70
Pigweed plant response rating (pigweed; [4]): 70
Plant response rating, Pigweed (pigweed; [5]): 98
Plant response rating (scale of 0 to 100), Pigweed (pigweed): 95
Ragweed plant response rating (ragweed; [3]): 0
Ragweed plant response rating (ragweed; [4]): 90
Plant response rating, Ragweed (ragweed; [5]): 80
Plant response rating (scale of 0 to 100), Ragweed (ragweed): 100
Soybean plant response rating (soybean; [3]): 0
Soybean plant response rating (soybean; [4]): 0
Plant response rating, Soybean (soybean; [5]): 100
Plant response rating (scale of 0 to 100), Soybean (soybean): 0
Barnyardgrass plant response rating (barnyardgrass [2]; [3]): 75
Barnyardgrass plant response rating (barnyardgrass [2]; [4]): 90
Plant response rating, Barnyardgrass (barnyardgrass [2]; [6]): 95
Plant response rating (scale of 0 to 100; 0 is no effect, 100 is complete control), Barnyardgrass (barnyardgrass [2]): 98
Waterhemp plant response rating (waterhemp; [3]): 75
Waterhemp plant response rating (waterhemp; [4]): 80
Plant response rating, Waterhemp (waterhemp; [5]): 90
Plant response rating (scale of 0 to 100), Waterhemp (waterhemp): 100

O=C1NCC(c2ccc(C(F)(F)F)cc2)C1C(=O)Nc1ccccc1Cl (centres unmarked) [Compound 233]
Plant response rating, Sedge, Umbrella (sedge, umbrella; 500 g ai/ha): 0
Plant response rating, Ducksalad (ducksalad; 500 g ai/ha): 100
Plant response rating, Barnyardgrass (barnyardgrass [1]; 500 g ai/ha): 60
Ryegrass, Italian plant response rating (ryegrass, Italian; [3]): 0
Ryegrass, Italian plant response rating (ryegrass, Italian; [4]): 0
Plant response rating, Ryegrass, Italian (ryegrass, Italian; [5]): 30
Plant response rating (scale of 0 to 100), Ryegrass, Italian (ryegrass, Italian): 40
Wheat plant response rating (wheat (winter wheat); [3]): 0
Wheat plant response rating (wheat (winter wheat); [4]): 0
Plant response rating, Wheat (wheat (winter wheat); [5]): 0
Plant response rating (scale of 0 to 100), Wheat (wheat (winter wheat)): 0
Galium plant response rating (galium; [3]): 0
Galium plant response rating (galium; [4]): 80
Plant response rating, Galium (galium; [5]): 90
Plant response rating (scale of 0 to 100), Galium (galium): 90
Corn plant response rating (corn; [3]): 0
Corn plant response rating (corn; [4]): 0
Plant response rating, Corn (corn; [5]): 10
Plant response rating (scale of 0 to 100), Corn (corn): 35
Lambsquarters plant response rating (lambsquarters; [3]): 85
Lambsquarters plant response rating (lambsquarters; [4]): 85
Plant response rating, Lambsquarters (lambsquarters; [5]): 95
Plant response rating (scale of 0 to 100), Lambsquarters (lambsquarters): 90
Morningglory plant response rating (morningglory; [3]): 0
Morningglory plant response rating (morningglory; [4]): 0
Plant response rating, Morningglory (morningglory; [5]): 20
Plant response rating (scale of 0 to 100), Morningglory (morningglory): 20
Pigweed plant response rating (pigweed; [3]): 50
Pigweed plant response rating (pigweed; [4]): 50
Plant response rating, Pigweed (pigweed; [5]): 60
Plant response rating (scale of 0 to 100), Pigweed (pigweed): 70
Ragweed plant response rating (ragweed; [3]): 10
Ragweed plant response rating (ragweed; [4]): 40
Plant response rating, Ragweed (ragweed; [5]): 40
Plant response rating (scale of 0 to 100), Ragweed (ragweed): 85
Soybean plant response rating (soybean; [3]): 0
Soybean plant response rating (soybean; [4]): 0
Plant response rating, Soybean (soybean; [5]): 5
Plant response rating (scale of 0 to 100), Soybean (soybean): 0
Barnyardgrass plant response rating (barnyardgrass [2]; [3]): 80
Plant response rating, Barnyardgrass (barnyardgrass [2]; 62 g ai/ha, scale 0 to 100): 75
Plant response rating, Barnyardgrass (barnyardgrass [2]; [6]): 85
Plant response rating (scale of 0 to 100; 0 is no effect, 100 is complete control), Barnyardgrass (barnyardgrass [2]): 90
Waterhemp plant response rating (waterhemp; [3]): 95
Waterhemp plant response rating (waterhemp; [4]): 80
Plant response rating, Waterhemp (waterhemp; [5]): 85
Plant response rating (scale of 0 to 100), Waterhemp (waterhemp): 95

O=C1NCC(c2cccc(C(F)(F)F)c2)C1C(=O)Nc1cccc(F)c1F (centres unmarked) [Compound 241]
Plant response rating, Sedge, Umbrella (sedge, umbrella; 250 g ai/ha): 0
Plant response rating, Sedge, Umbrella (sedge, umbrella; 1000 g ai/ha): 20
Plant response rating, Ducksalad (ducksalad; 250 g ai/ha): 100
Plant response rating, Ducksalad (ducksalad; 1000 g ai/ha): 100
Plant response rating, Barnyardgrass (barnyardgrass [1]; 250 g ai/ha): 55
Plant response rating, Barnyardgrass (barnyardgrass [1]; 1000 g ai/ha): 75
Ryegrass, Italian plant response rating (ryegrass, Italian; [3]): 20
Ryegrass, Italian plant response rating (ryegrass, Italian; [4]): 20
Plant response rating, Ryegrass, Italian (ryegrass, Italian; [5]): 30
Plant response rating (scale of 0 to 100), Ryegrass, Italian (ryegrass, Italian): 55
Wheat plant response rating (wheat (winter wheat); [3]): 0
Wheat plant response rating (wheat (winter wheat); [4]): 45
Plant response rating, Wheat (wheat (winter wheat); [5]): 90
Plant response rating (scale of 0 to 100), Wheat (wheat (winter wheat)): 80
Galium plant response rating (galium; [3]): 20
Galium plant response rating (galium; [4]): 80
Plant response rating, Galium (galium; [5]): 85
Plant response rating (scale of 0 to 100), Galium (galium): 85
Corn plant response rating (corn; [3]): 85
Corn plant response rating (corn; [4]): 65
Plant response rating, Corn (corn; [5]): 80
Plant response rating (scale of 0 to 100), Corn (corn): 90
Lambsquarters plant response rating (lambsquarters; [3]): 0
Lambsquarters plant response rating (lambsquarters; [4]): 0
Plant response rating, Lambsquarters (lambsquarters; [5]): 10
Plant response rating (scale of 0 to 100), Lambsquarters (lambsquarters): 100
Morningglory plant response rating (morningglory; [3]): 0
Morningglory plant response rating (morningglory; [4]): 0
Plant response rating, Morningglory (morningglory; [5]): 10
Plant response rating (scale of 0 to 100), Morningglory (morningglory): 30
Pigweed plant response rating (pigweed; [3]): 0
Pigweed plant response rating (pigweed; [4]): 0
Plant response rating, Pigweed (pigweed; [5]): 25
Plant response rating (scale of 0 to 100), Pigweed (pigweed): 70
Ragweed plant response rating (ragweed; [3]): 0
Ragweed plant response rating (ragweed; [4]): 25
Plant response rating, Ragweed (ragweed; [5]): 30
Plant response rating (scale of 0 to 100), Ragweed (ragweed): 70
Soybean plant response rating (soybean; [3]): 0
Soybean plant response rating (soybean; [4]): 0
Plant response rating, Soybean (soybean; [5]): 0
Plant response rating (scale of 0 to 100), Soybean (soybean): 0
Barnyardgrass plant response rating (barnyardgrass [2]; [3]): 90
Plant response rating, Barnyardgrass (barnyardgrass [2]; 62 g ai/ha, scale 0 to 100): 95
Plant response rating, Barnyardgrass (barnyardgrass [2]; [6]): 95
Plant response rating (scale of 0 to 100; 0 is no effect, 100 is complete control), Barnyardgrass (barnyardgrass [2]): 95
Waterhemp plant response rating (waterhemp; [3]): 25
Waterhemp plant response rating (waterhemp; [4]): 40
Plant response rating, Waterhemp (waterhemp; [5]): 45
Plant response rating (scale of 0 to 100), Waterhemp (waterhemp): 60
